Measurements published in EPA's ToxValDB 9.5.
Blank lines part the entries; values can stand above or below the compound they belong to.

Key:
Gallus gallus = conditions: oral, diet
[1] = subchronic, duration: 90 days, oral, diet, M/F, Sprague-Dawley, no effects
[2] = subchronic, duration: 90 days, oral
[3] = subchronic, duration: 13 weeks, oral, diet, M/F, no effects

SMILES: C=CC(C)(O)C/C=C/C(=C)C (stereo not given) [(E)-3,7-Dimethylocta-1,5,7-trien-3-ol]
- NOAEL (Rattus norvegicus; [1]): 44 mg/kg-day

SMILES: C=CCSC(=O)CCCCC [Allyl thiohexanoate]
- NOAEL (Rattus norvegicus; [2]): 6.63 mg/kg-day

SMILES: CSc1ccccc1 [Benzene, (methylthio)-]
- NOAEL (Rattus norvegicus; [2]): 0.43 mg/kg-day

SMILES: Cc1occc1SSc1ccoc1C [Bis(2-methyl-3-furyl)disulfide]
- NOAEL (Rattus norvegicus; subchronic, duration: 90 days, oral, diet, M/F, Wistar, no effects): 0.45 mg/kg-day
- NOAEL (Rattus norvegicus; subchronic, duration: 90 days, oral, diet, Wistar, no effects): 0.45 mg/kg-day

SMILES: CC(C)(c1ccc(OCC2CO2)cc1)c1ccc(OCC2CO2)cc1 (stereo not given) [Bisphenol A diglycidyl ether]
- NOAEL (Rattus norvegicus; chronic, duration: 2 years, oral, gavage, M/F, Fischer 344, organ weight): 15 mg/kg-day

SMILES: COc1ccc(O)c(C(C)(C)C)c1 [Butylated hydroxyanisole]
- NOAEL (Rattus norvegicus; developmental, oral, Sprague-Dawley, development): 100 mg/kg-day

SMILES: CCCCOC(=O)c1ccccc1C(=O)OCCCC [Dibutyl 1,2-benzenedicarboxylate]
- LOAEL (Rattus norvegicus; reproduction developmental, oral, F, histopathology: nonneoplastic): 2 mg/kg-day

SMILES: CC(C)SSSC(C)C [Diisopropyl trisulfide]
- NOEL (Rattus norvegicus; subchronic, duration: 13 weeks, oral, gavage): 4.8 mg/kg-day

SMILES: CS(C)=O [Dimethyl sulfoxide]
- NOAEL (Rattus norvegicus; repeat dose other, oral, gavage, F, no effects): 1000 mg/kg-day

SMILES: C[N+](C)(C)[C@@H](Cc1c[nH]c(=S)[nH]1)C(=O)[O-] [Ergothioneine]
- NOEL (Rattus norvegicus; reproduction developmental, duration: 13 weeks, oral, diet, M/F, Sprague-Dawley, no effects): 725 mg/kg-day
- NOAEL (Rattus norvegicus; short-term, duration: 28 days, oral, gavage, M/F, Sprague-Dawley, hematological): 800 mg/kg-day

SMILES: CCCCCCCCCCCC(=O)N[C@@H](CCCN=C(N)N)C(=O)OCC.Cl [Ethyl-N2-dodecanoyl-L-argininate hydrochloride]
- NOAEL (Rattus norvegicus; subchronic, duration: 13 weeks, oral, M/F, Sprague-Dawley, clinical chemistry): 47 mg/kg-day

SMILES: CCN(Cc1cccc(S(=O)(=O)[O-])c1)c1ccc(C(=C2C=CC(=[N+](CC)Cc3cccc(S(=O)(=O)[O-])c3)C=C2)c2ccccc2S(=O)(=O)[O-])cc1.[Na+].[Na+] [FD&C Blue No. 1]
- NOAEL (Rattus norvegicus; chronic, duration: 30 months, oral, diet, M/F, mortality): 631 mg/kg-day
- NOAEL (Rattus norvegicus; chronic, other): 631 mg/kg-day

SMILES: NCC(=O)[O-].NCC(=O)[O-].[Fe+2] [Ferrous bisglycinate]
- LD50 (Rattus norvegicus; acute, oral, M/F, mortality): 2800 mg/kg-day
- NOAEL (Rattus norvegicus; subchronic, duration: 13 weeks, oral, Sprague-Dawley, no effects): 500 mg/kg-day

SMILES: C=O [Formaldehyde]
- NOAEL (Rattus norvegicus; chronic, duration: 104 weeks, oral, drinking water, M/F, Wistar, histopathology: nonneoplastic): 15 mg/kg-day
- LEL (Gallus gallus; short-term, duration: 28 days, no effects): 990 mg/kg-day

SMILES: CCOC(OCC)c1ccco1 [Furan, 2-(diethoxymethyl)-]
- NOEL (Rattus norvegicus; subchronic, duration: 90 days, oral, diet, M/F, Fischer 344, hematological): 54 mg/kg-day

SMILES: CC(C=O)c1ccccc1 (stereo not given) [Hydratropaldehyde]
- NOAEL (Rattus norvegicus; chronic, duration: 15 weeks, oral, gavage, M/F, organ weight): 50 mg/kg-day

- LEL (Rattus norvegicus; subchronic, duration: 90 days, oral, gavage, M/F, Sprague-Dawley, histopathology: neoplastic): 1000 mg/kg-day
SMILES: NCCCC[C@H](N)C(=O)O.O=S(=O)(O)O [L-Lysine sulphate]

SMILES: C=CC(C)(O)CCC=C(C)C (stereo not given) [Linalool]
- NOAEL (Rattus norvegicus; short-term, duration: 28 days, oral, M/F, histopathology: nonneoplastic): 117 mg/kg-day

SMILES: COC(=O)c1cc(Cl)ccc1Cl [Methyl 2,5-dichlorobenzoate]
- NOAEL (Rattus norvegicus; short-term, duration: 28 days, oral, clinical signs): 100 mg/kg-day

SMILES: CNc1ccccc1C(=O)OC [Methyl N-methylanthranilate]
- NOAEL (Rattus norvegicus; subchronic, duration: 90 days, organ weight): 20 mg/kg-day

SMILES: COC(=O)c1ccccc1O [Methyl salicylate]
- NOAEL (Rattus norvegicus; chronic, duration: 2 years, oral, growth): 50 mg/kg-day
- NOAEL (Canidae; chronic, duration: 2 years, Dog Other): 50 mg/kg-day

SMILES: COC(=O)CSCc1ccco1 [Methyl {[(furan-2-yl)methyl]sulfanyl}acetate]
- NOAEL (Rattus norvegicus; subchronic, duration: 90 days, oral, diet, M/F, clinical chemistry): 5.78 mg/kg-day

SMILES: C=CC(=C)CCC=C(C)C [Myrcene]
- NOAEL (Rattus norvegicus; [1]): 44 mg/kg-day

SMILES: C[C@@H]1O[C@@H](O[C@H]2[C@H](Oc3cc(O)c4c(c3)O[C@H](c3ccc(O)cc3)CC4=O)O[C@H](CO)[C@@H](O)[C@@H]2O)[C@H](O)[C@H](O)[C@H]1O [Naringin]
- NOAEL (Rattus norvegicus; chronic, duration: 400 days, oral, diet, food consumption): 1250 mg/kg-day

SMILES: O=C(O)c1cc(=O)[nH]c(=O)[nH]1 [Orotic acid]
- NOAEL (Rattus norvegicus; chronic, duration: 20 weeks, oral, diet, histopathology: neoplastic): 50 mg/kg-day

SMILES: O=C(/C=C/C=C/c1ccc2c(c1)OCO2)N1CCCCC1 [Piperine]
- NOAEL (Rattus norvegicus; subchronic, duration: 90 days, oral, diet, M/F, Crj:CD, clinical chemistry): 5 mg/kg-day

SMILES: O=Cc1ccc2c(c1)OCO2 [Piperonal]
- NOAEL (Rattus norvegicus; chronic, duration: 2 years): 250 mg/kg-day

SMILES: SCCc1cnccn1 [Pyrazineethanethiol]
- NOAEL (Rattus norvegicus; [3]): 1.63 mg/kg-day

SMILES: CSc1cnccn1 [Pyrazinyl methyl sulfide]
- NOAEL (Rattus norvegicus; [3]): 1.63 mg/kg-day

SMILES: CCSC(C)=O [S-Ethyl thiolacetate]
- NOEL (Rattus norvegicus; subchronic, duration: 13 weeks, oral, diet): 6.5 mg/kg-day

- LEL (Gallus gallus; subchronic, duration: 39 days, M/F, food consumption): 10000 mg/kg-day
SMILES: CN(C)CC(=O)O.[H-].[Na+] [Sodium N,N-dimethylglycinate]

SMILES: O=C1O[C@H]([C@H](O)CO)C([O-])=C1O.[Na+] [Sodium erythorbate]
- NOAEL (Rattus norvegicus; chronic, duration: 2 years, oral, drinking water, M/F, Fischer 344, body weight): 650 mg/kg-day

SMILES: [Na+].[Na+].[O-]B1OB2OB([O-])OB(O1)O2 [Sodium tetraborate (Na2B4O7)]
- NOAEL (Rattus norvegicus; developmental, duration: 20 days, F, Sprague-Dawley, development): 55 mg/kg-day

SMILES: OC[C@H]1O[C@@H]2O[C@H]3[C@H](O)[C@@H](O)[C@@H](O[C@H]4[C@H](O)[C@@H](O)[C@@H](O[C@H]5[C@H](O)[C@@H](O)[C@@H](O[C@H]6[C@H](O)[C@@H](O)[C@@H](O[C@H]7[C@H](O)[C@@H](O)[C@@H](O[C@H]1[C@H](O)[C@H]2O)O[C@@H]7CO)O[C@@H]6CO)O[C@@H]5CO)O[C@@H]4CO)O[C@@H]3CO [alpha-Cyclodextrin]
- NOAEL (Canidae; subchronic, duration: 90 days, oral, diet, M/F, Beagle, no effects): 10000 mg/kg-day
